Results reported in patent US20160310369A1, “Low Viscosity Hair Care Composition” (The Procter & Gamble Company, priority 2015, published 2016).
Where a name gives a salt, the structure may show the parent alone.

Experiment: Kinematic viscosity of surfactant base formulation with added agent, calibrated Cannon viscometers at 40° C.
Assay type: physicochemical
Conditions: for Kinematic viscosity at 40 C. [cSt] 2% oil: 2% agent in base formulation; for Kinematic viscosity at 40 C. [cSt] 4% oil: 4% agent in base formulation; for Kinematic viscosity at 40 C. [cSt] Lowest viscosity achieved: lowest over 2-8% agent, Table 2; for Kinematic viscosity at 40 C. [cSt] 6% oil: 6% agent in base formulation; for Kinematic viscosity at 40 C. [cSt] 8% oil: 8% agent in base formulation
Source text: Referring to Tables 1 and 2, the base formulations were made by mixing 1.6% perfume, 24% sodium undecyl sulfate (CAS#1072-24-8) active, 6% lauramidopropyl betaine (CAS#4292-10-8) active and 60.4% deionized water which leaves 8% unfilled for the addition of a viscosity reducing agent (the balance being filled in by distilled water). For all compositions, the surfactant, water and additives including viscosity reducing agents were expected to be in a single phase.
The agents from Tables 1 and 2 were added to the base formulation at a percentage of 2%, 4%, 6%, and 8% into the above surfactant solution. The subsequent formulations were vortexed and put into oven at 60° C. overnight to form homogeneous solution. The viscosities of the formulations were measured with calibrated viscometers (Size 200/350/450) from Cannon Instrument Company (2139 High Tech Road, State College, Pa., USA, 16803).
(§1) After the equilibration, the formulations were drawn to reach the starting mark with a rubber suction bulb and the flow time between the starting mark and end mark was recorded for calculation. Each formulation was measured three times to calculate average and standard deviation. Between samples, viscometer was cleaned with water and acetone to rinse off residual.
Viscosity values were calculated based on the equation:
Viscosity (mm^2/s·(cSt))=Time (s)*Constant (mm^2/s^2·(cSt/s))
The time in the above equation is the flow time recorded in the experiment and the constant numbers for each calibrated viscometer were obtained from the manuals.
The viscosity of the hair care composition can be calculated using the following method: Combine ingredients including surfactants, perfumes, viscosity reducing agents, polymers, other ingredients and the aqueous medium in a vessel. Samples are vortexed and placed into oven at 60° C. overnight to form a homogeneous solution. Samples that show hazing or clouding and formulas that appear macroscopically heterogeneous (e.g. multiple layers) at room temperature are not considered for further analysis and evaluation.
The viscosities of the formulations are measured with calibrated viscometers (Size 200/350/450) from Cannon Instrument Company (2139 High Tech Road, State College, Pa., USA, 16803). Prior to the measurement, the formulations are equilibrated in the viscometer reservoir for 30 min at 40° C. in water bath to ensure a homogeneous temperature is reached in the system.
as §1, with “are” for “were”, “is” for “was”, “samples, the” for “samples,”

Row | SMILES | Kinematic viscosity at 40 C. [cSt] 2% oil [cSt] | Kinematic viscosity at 40 C. [cSt] 4% oil [cSt] | Kinematic viscosity at 40 C. [cSt] Lowest viscosity achieved [cSt] | Kinematic viscosity at 40 C. [cSt] 6% oil [cSt] | Kinematic viscosity at 40 C. [cSt] 8% oil [cSt]
1 | CCCCCCCC(OC)OC [1,1-Dimethoxyoctane] | 500.7 | 308.1 | 308 | – | –
2 | CCC(=O)OC1CC2CC1C1CC=CC21 (stereo not drawn) [Cyclaprop] | 404.2 | – | 404 | – | –
3 | C=C(C)[C@H]1CC=C(C)CC1 [Dipentene] | 307.6 | 74.5 | 35 | 35.1 | 42.6
4 | CC(C)CC=C(C=O)C(C)C [2-Isopropyl-5-methyl-2-hexenal] | 332.3 | – | 332 | – | –
5 | CC12CCC(CC1=O)C2(C)C (stereo not drawn) [Camphor Gum] | 365.8 | 127.2 | 127 | – | –
6 | CCCCCC1(C)CCC(C)(C)C1=O (stereo not drawn) [Veloutone] | 260.2 | 129.1 | 47 | 56.3 | 47.3
7 | CC(=O)OCCC(C)CCC=C(C)C (stereo not drawn) [Citronellyl Acetate] | 362.7 | – | 363 | – | –
8 | CCC(=O)O[C@@H]1C[C@H]2CC[C@]1(C)C2(C)C (racemic) [Iso Bornyl Propionate] | 463.1 | – | 463 | – | –
9 | CC(=O)CCc1ccc(O)cc1 [Raspberry Ketone] | 151.9 | 107.4 | 33 | 54.0 | 33.0
10 | CCCCCC(=O)OCC(C)C [Isobutyl Hexanoate] | 390.0 | 177.9 | 109 | 140.9 | 109.4
11 | COC(C)(C)C1CC=C(C)CC1 (stereo not drawn) [Orange Flower Ether] | 552.2 | 418.8 | 419 | – | –
12 | CC(=O)OCCC(C)CCCC(C)C (stereo not drawn) [3,7-Dimethyloctyl Acetate] | 445.7 | – | 446 | – | –
13 | CC12CCC(CC1)C(C)(C)O2 [Eucalyptol] | 527.3 | 292.9 | 203 | 203.1 | –
14 | CC(C)=CCC/C(C)=C/COC(=O)Cc1ccccc1 [Geranyl Phenyl Acetate] | 224.0 | 76.0 | 34 | 34.3 | 36.6
15 | CCCCCCC1C(=O)CCC1C(=O)OC (stereo not drawn) [Dihyro Iso Jasmonate] | 334.9 | 119.1 | 119 | – | –
16 | CC1=CC=C(C(C)C)CC1 [alpha-Terpinene] | 324.4 | 96.0 | 42 | 41.5 | 46.7
17 | CC(CC=O)CCCC(C)(C)O (stereo not drawn) [Hydroxycitronellal] | 310.8 | 145.4 | 34 | 65.9 | 34.1
18 | CC1=CCC(C(C)C)=CC1 [gamma-Terpinene] | 238.0 | 65.0 | 32 | 31.7 | –
19 | C=CC(C)(CCC=C(C)C)OC(=O)C(C)C (stereo not drawn) [Linalyl Iso Butyrate] | 223.4 | 73.0 | 38 | 37.7 | 39.9
20 | CC(C)CCOC(=O)c1ccccc1O [Isoamyl Salicylate] | 460.3 | 193.2 | 193 | – | –
21 | CCCCCCCCCCCCCC(=O)OC(C)C [Iso Propyl Myristate] | 234.2 | 53.7 | 30 | 30.4 | 45.0
22 | CCCCOC(=O)c1ccccc1O [Butyl Salicylate] | 367.9 | – | 368 | – | –
23 | C=C(C)[C@H]1CC=C(C)CC1 [Limonene] | 366.5 | 166.8 | 86 | 97.5 | 86.4
24 | CCO [Ethanol, reference compound] | 205.6 | 111.0 | 29 | 50.8 | 29.2
25 | CC(C)COC(=O)c1ccccc1O [Iso Butyl Salicylate] | 408.7 | – | 409 | – | –
26 | CCCCCCCCCCCCCCCC [Hexadecane] | 21.1 | 18.1 | 18 | – | –
27 | CCC(CC(C)CC)=NO (stereo not drawn) [5-Methyl-3-Heptanone Oxime] | 246.3 | – | 246 | – | –
28 | CCOC(=O)CC(O)(CC(=O)OCC)C(=O)OCC [Triethyl Citrate] | 269.4 | 136.6 | 41 | 66.6 | 40.5
